Key:
μ-opioid receptor [1] = target: T1, μ-opioid receptor (Homo sapiens, UniProt P35372); experiment: μ-opioid receptor [35S]GTPγS functional assay, HEK-293 or CHO cells; conditions: for Emax: read-out: GTPγS μ Emax
κ opioid receptor = κ opioid receptor (Homo sapiens, UniProt P41145); experiment: biochemical; assay type: binding; parameters: expressed in transfected cells; host or cells: HEK 293 (in-house membrane prep); conditions: HEK-293 or CHO cells
μ-opioid receptor [2] = target: T1, μ-opioid receptor; experiment: μ-opioid receptor [35S]GTPγS functional assay, U-2 OS cells; assay type: biochemical; parameters: expressed in transfected cells; host or cells: U-2 OS; conditions: for Emax: relative to DAMGO, read-out: GTPγS μ Emax
[3] = U-2 OS cells, read-out: GTPγS μ EC50

T1 sequence (P35372 whole entry, species assumed): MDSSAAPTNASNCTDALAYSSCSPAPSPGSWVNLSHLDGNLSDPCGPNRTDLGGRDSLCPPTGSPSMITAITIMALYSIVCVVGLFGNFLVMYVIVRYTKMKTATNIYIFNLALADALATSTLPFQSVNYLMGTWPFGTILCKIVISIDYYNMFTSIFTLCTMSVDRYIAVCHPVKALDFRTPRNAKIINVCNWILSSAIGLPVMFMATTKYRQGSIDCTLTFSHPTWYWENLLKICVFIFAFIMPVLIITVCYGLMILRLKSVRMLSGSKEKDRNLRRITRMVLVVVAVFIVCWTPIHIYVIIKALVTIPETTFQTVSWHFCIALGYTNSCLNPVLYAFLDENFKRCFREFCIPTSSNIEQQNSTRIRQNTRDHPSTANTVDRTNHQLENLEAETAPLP
Sequence of κ opioid receptor (P41145 whole entry): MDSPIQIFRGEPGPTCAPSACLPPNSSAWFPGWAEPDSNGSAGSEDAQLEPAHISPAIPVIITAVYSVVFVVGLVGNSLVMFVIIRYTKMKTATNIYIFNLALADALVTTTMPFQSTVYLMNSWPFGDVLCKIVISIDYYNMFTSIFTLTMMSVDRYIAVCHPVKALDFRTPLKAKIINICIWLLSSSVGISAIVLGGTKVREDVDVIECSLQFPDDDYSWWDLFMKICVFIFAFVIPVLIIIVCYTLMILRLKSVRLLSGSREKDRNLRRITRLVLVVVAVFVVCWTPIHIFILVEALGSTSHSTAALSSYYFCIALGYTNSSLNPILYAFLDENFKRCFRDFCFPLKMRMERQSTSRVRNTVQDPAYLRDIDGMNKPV

Structure (SMILES)	EC50 (μ-opioid receptor [1]) [µM]	Ki (κ opioid receptor; bound in μM) [µM]	Ki (κ opioid receptor) [µM]	further results
CN1CC[C@]2(C)c3cc(O)ccc3CC1[C@@H]2CC(=O)N1CCC[C@H]1C(=O)O [Compound 55, (2S)-1-(2-((6S,11R)-8-hydroxy-3,6-dimethyl-1,2,3,4,5,6-hexahydro-2,6-methanobenzo[d]azocin-11-yl)acetyl)pyrrolidine-2-carboxylic acid]	5.91 ± 0.422	> 20		Emax (μ-opioid receptor [1]): 71 ± 8.08%
COc1ccc2c(c1)[C@@]1(C)CCN(CC3CC3)[C@H](C2)[C@H]1N(C)C(=O)/C=C/c1ccoc1 [Compound 85, (E)-N-((2R,6R,11S)-3-(cyclopropylmethyl)-8-methoxy-6-methyl-1,2,3,4,5,6-hexahydro-2,6-methanobenzo[d]azocin-11-yl)-3-(furan-3-yl)-N-methylacrylamide]			0.701 ± 0.0941	EC50 (μ-opioid receptor [2]; [3]): 3.24 ± 0.77 µM; Emax (μ-opioid receptor [2]; U-2 OS cells): 19.3 ± 2.33%
COc1ccc2c(c1)[C@@]1(C)CCN(C)C(C2)[C@@H]1c1cccc(C#N)c1 [Compound 36, 3-((6S,11R)-8-methoxy-3,6-dimethyl-1,2,3,4,5,6-hexahydro-2,6-methanobenzo[d]azocin-11-yl)benzonitrile]	> 20		4.19 ± 1.05	
COc1ccc2c(c1)[C@@]1(C)CCN(CC3CC3)[C@H](C2)[C@H]1N(C)CC(=O)O [Compound 73, 2-(((2R,6R,11S)-3-(cyclopropylmethyl)-8-methoxy-6-methyl-1,2,3,4,5,6-hexahydro-2,6-methanobenzo[d]azocin-11-yl)(methyl)amino)acetic acid]	18.1 ± 2.72	> 20		Emax (μ-opioid receptor [1]): 25 ± 2.52%
COc1ccc2c(c1)[C@@]1(C)CCN(C)C(C2)[C@]1(O)c1cccc(C#N)c1 [Compound 37, 3-((6R,11S)-11-hydroxy-8-methoxy-3,6-dimethyl-1,2,3,4,5,6-hexahydro-2,6-methanobenzo[d]azocin-11-yl)benzonitrile]	> 20	> 20		
COc1ccc2c(c1)[C@@]1(C)CCN(CC3CC3)C(C2)[C@H]1N(C)C(=O)Nc1ccc(C(N)=O)cc1 [Compound 82]			10.2	EC50 (μ-opioid receptor [2]; U-2 OS cells, bound in μM, read-out: GTPγS μ EC50): > 20 µM; Emax (μ-opioid receptor [2]; U-2 OS cells): 31.7 ± 5.36%
COC(=O)c1cccc([C@@]2(O)C3Cc4ccc(OC)cc4[C@@]2(C)CCN3C)c1 [Compound 64, methyl 3-((6R,11S)-11-hydroxy-8-methoxy-3,6-dimethyl-1,2,3,4,5,6-hexahydro-2,6-methanobenzo[d]azocin-11-yl)benzoate]	> 20		12.4	
COc1ccc2c(c1)[C@@]1(C)CCN(C)C(C2)[C@]1(O)c1cccc(C(=O)O)c1 [Compound 71, 3-((6R,11S)-11-hydroxy-8-methoxy-3,6-dimethyl-1,2,3,4,5,6-hexahydro-2,6-methanobenzo[d]azocin-11-yl)benzoic acid]	13 ± 1.14	> 20		Emax (μ-opioid receptor [1]): 23 ± 4.58%
COc1ccc2c(c1)[C@@]1(C)CCN(C)C(C2)[C@@H]1c1cccc(OCc2ccccc2)c1 [Compound 61, (6S,11R)-11-(3-(benzyloxy)phenyl)-8-methoxy-3,6-dimethyl-1,2,3,4,5,6-hexahydro-2,6-methanobenzo[d]azocine]	5.76 ± 1.55		2.77 ± 0.85	Emax (μ-opioid receptor [1]): 26.7 ± 0.88%
CN1CC[C@]2(C)c3cc(O)ccc3C[C@@H]1[C@@H]2N(C)C(=O)c1ccc(C(=O)O)cc1 [Compound 59, 4-(((2R,6R,11R)-8-hydroxy-3,6-dimethyl-1,2,3,4,5,6-hexahydro-2,6-methanobenzo[d]azocin-11-yl)(methyl)carbamoyl)benzoic acid]	3.44 ± 0.183	> 20		Emax (μ-opioid receptor [1]): 76.3 ± 10.2%
CON=C1C2Cc3ccc(OC)cc3C1(C)CCN2CC1CC1 (stereo not drawn) [Compound 10, 3-(cyclopropylmethyl)-8-methoxy-6-methyl-1,2,3,4,5,6-hexahydro-2,6-methanobenzo[d]azocin-11-one O-methyl Oxime]			2.14 ± 0.151	
COc1ccc2c(c1)[C@@]1(C)CCN(C)C(C2)[C@]1(O)c1cccc(-c2nnn[nH]2)c1 [Compound 66, (6R,11S)-11-(3-(1H-tetrazol-5-yl)phenyl)-8-methoxy-3,6-dimethyl-1,2,3,4,5,6-hexahydro-2,6-methanobenzo[d]azocin-11-ol]	6.61 ± 0.199	> 20		Emax (μ-opioid receptor [1]): 20.7 ± 1.33%
CN1CC[C@]2(C)c3cc(O)ccc3CC1C2Nc1ccc(CCS(N)(=O)=O)cc1 (stereo in doubt) [Compound 58, 2-(4-(((2R,6R,11S)-8-hydroxy-3,6-dimethyl-1,2,3,4,5,6-hexahydro-2,6-methanobenzo[d]azocin-11-yl)amino)phenyl)ethanesulfonamide]	0.751 ± 0.0433		0.336 ± 0.0875	Emax (μ-opioid receptor [1]): 110 ± 7.55%
CN1CCC2(C)C(=NO)C1Cc1ccc(O)cc12 (stereo not drawn) [Compound 18, 8-hydroxy-3,6-dimethyl-1,2,3,4,5,6-hexahydro-2,6-methanobenzo[d]azocin-11-one oxime]			5.58 ± 1.01	
CN(C)C(=O)C(CCN1CC[C@]2(C)c3cc(O)ccc3CC1[C@@H]2O)(c1ccccc1)c1ccccc1 [Compound 21, 4-((6R,11R)-8,11-dihydroxy-6-methyl-1,2,5,6-tetrahydro-2,6-methanobenzo[d]azocin-3(4H)-yl)-N,N-dimethyl-2,2-diphenylbutanamide]			1.22 ± 0.332	
CN[C@@H]1C2Cc3ccc(OC)cc3[C@@]1(C)CCN2C [Compound 8, (6R,11S)-8-methoxy-N,3,6-trimethyl-1,2,3,4,5,6-hexahydro-2,6-methanobenzo[d]azocin-11-amine]		> 20		
CN1CC[C@]2(C)c3cc(O)ccc3CC1C2N(C)C(=O)CCC(=O)O (stereo in doubt) [Compound 28, 4-(((2R,6R,11S)-8-hydroxy-3,6-dimethyl-1,2,3,4,5,6-hexahydro-2,6-methanobenzo[d]azocin-11-yl)(methyl)amino)-4-oxobutanoic acid]			18.2	EC50 (μ-opioid receptor [2]; [3]): 1.56 ± 0.106 µM; Emax (μ-opioid receptor [2]; U-2 OS cells): 74.7 ± 4.63%
CCOC(=O)C[C@H]1C2Cc3ccc(OC)cc3[C@@]1(C)CCN2C [Compound 14, ethyl 2-((6S,11R)-8-methoxy-3,6-dimethyl-1,2,3,4,5,6-hexahydro-2,6-methanobenzo[d]azocin-11-yl)acetate]			14.3	
COc1ccc2c(c1)C1(C)CCN(CCC(C(=O)N(C)C)(c3ccccc3)c3ccccc3)C(C2)C1=NO (stereo not drawn) [Compound 19, 4-(11-(hydroxyimino)-8-methoxy-6-methyl-1,2,5,6-tetrahydro-2,6-methanobenzo[d]azocin-3(4H)-yl)-N,N-dimethyl-2,2-diphenylbutanamide]			8.52 ± 0.605	
COc1ccc2c(c1)[C@@]1(C)CCN(C)C(C2)[C@@H]1CO [Compound 11, ((6S,11R)-8-methoxy-3,6-dimethyl-1,2,3,4,5,6-hexahydro-2,6-methanobenzo[d]azocin-11-yl)methanol]		> 20		
COc1ccc2c(c1)[C@@]1(C)CCN(C)C(C2)[C@H]1N(C)C(=O)/C=C/c1ccoc1 [Compound 20, (E)-3-(furan-3-yl)-N-((6R,11S)-8-methoxy-3,6-dimethyl-1,2,3,4,5,6-hexahydro-2,6-methanobenzo[d]azocin-11-yl)-N-methylacrylamide]			1.95 ± 0.538	
COc1ccc2c(c1)[C@@]1(C)CCN(CC3CC3)[C@H](C2)[C@H]1N(C)C(=O)/C=C\c1ccoc1 [Compound 86, (Z)—N-((2R,6R,11S)-3-(cyclopropylmethyl)-8-methoxy-6-methyl-1,2,3,4,5,6-hexahydro-2,6-methanobenzo[d]azocin-11-yl)-3-(furan-3-yl)-N-methylacrylamide]			0.979 ± 0.146	EC50 (μ-opioid receptor [2]; [3]): 2.15 ± 0.21 µM; Emax (μ-opioid receptor [2]; U-2 OS cells): 14.7 ± 0.88%
CN[C@H]1C2Cc3ccc(OC)cc3[C@@]1(C)CCN2C [Compound 9, (6R,11R)-8-methoxy-N,3,6-trimethyl-1,2,3,4,5,6-hexahydro-2,6-methanobenzo[d]azocin-11-amine]			18.9 ± 3.13	
COc1ccc2c(c1)[C@@]1(C)CCN(C)C(C2)C1NC(=O)/C=C/c1ccoc1 (stereo in doubt) [Compound 23, (E)-3-(furan-3-yl)-N-((2R,6R,11S)-8-methoxy-3,6-dimethyl-1,2,3,4,5,6-hexahydro-2,6-methanobenzo[d]azocin-11-yl)acrylamide]			13.2	
COc1ccc2c(c1)[C@@]1(C)CCN(C)[C@@H](C2)C1=NNC(=O)c1ccc(F)cc1 [Compound 26, 4-fluoro-N′-((2S,6R)-8-methoxy-3,6-dimethyl-1,2,3,4,5,6-hexahydro-2,6-methanobenzo[d]azocin-11-ylidene)benzohydrazide]		> 20		EC50 (μ-opioid receptor [2]; GTPγS μ EC50, U-2 OS cells): 1.19 ± 0.0939 µM; Emax (μ-opioid receptor [2]; U-2 OS cells): 91 ± 7.09%
COc1ccc2c(c1)C1(C)CCN(C)C(C2)/C1=C\C(=O)O (stereo not drawn) [Compound 13, (Z)-2-(8-methoxy-3,6-dimethyl-1,2,3,4,5,6-hexahydro-2,6-methanobenzo[d]azocin-11-ylidene)acetic acid]		> 20		
COc1ccc2c(c1)[C@@]1(C)CCN(C)C(C2)[C@@H]1CC(=O)O [Compound 15, 2-((6S,11R)-8-methoxy-3,6-dimethyl-1,2,3,4,5,6-hexahydro-2,6-methanobenzo[d]azocin-11-yl)acetic acid]		> 20		
CN1CC[C@]2(C)c3cc(O)ccc3C[C@@H]1[C@H]2N(C)C(=O)Nc1ccc(C#N)cc1 [Compound 79, 3-(4-cyanophenyl)-1-((2R,6R,11S)-8-hydroxy-3,6-dimethyl-1,2,3,4,5,6-hexahydro-2,6-methanobenzo[d]azocin-11-yl)-1-methylurea]			3.14 ± 0.805	EC50 (μ-opioid receptor [2]; [3]): 2.2 ± 0.668 µM; Emax (μ-opioid receptor [2]; U-2 OS cells): 49 ± 3.46%
CN(C)C(=O)C(CCN1CC[C@]2(C)c3cc(O)ccc3CC1C2N(C)C(=O)Nc1ccc(C#N)cc1)(c1ccccc1)c1ccccc1 (stereo in doubt) [Compound 84, 4-((2R,6R,11S)-11-(3-(4-cyanophenyl)-1-methylureido)-8-hydroxy-6-methyl-1,2,5,6-tetrahydro-2,6-methanobenzo[d]azocin-3(4H)-yl)-N,N-dimethyl-2,2-diphenylbutanamide]			0.269 ± 0.0277	EC50 (μ-opioid receptor [2]; [3]): 0.0839 ± 0.0133 µM; Emax (μ-opioid receptor [2]; U-2 OS cells): 90.7 ± 1.86%

Reference: patent US10138207B2, “Benzomorphan analogs and the use thereof” (priority 2012, dated 2018)
